# Like-named read-outs stand apart in the source and are kept apart here.
# What was measured:
# [1] = system: selected relevant microorganisms; experiment: Antimicrobial activity, overall statement (active/inactive); type: cell-based
# [2] = system: BEAS (human airway epithelial cells); experiment: Cytotoxic assay on human cells (resazurin); type: cell-based; conditions: Epithelial cell, 48 h, means +/−SD, read-out: Inhibitory Concentration 50 (IC50) on cell viability, BEAS
# Experimental: (§1) The toxicity of berberine and berberine’s derivatives on human cells was evaluated using resazurin assay as previously described. Human cells used were BEAS (ATCC CRL-9609), Caco2 (ATCC HTB-37) and HepG2 (ATCC HB-8065) corresponding respectively to human airway epithelial cells, intestinal epithelial cells and liver cells. Cells were cultured in Dulbecco’s modified essential medium (DMEM) supplemented with 10% fetal bovine serum (FBS), 1% L-glutamine and 1% antibiotics (Thermo Fisher Scientific, Illkirch-Graffenstaden, France). Cells were routinely grown on 25 cm^2 flasks and maintained in a 5% CO2 incubator at 37 °C. For toxicity assay, cells were detached using trypsin–EDTA solution (Thermo Fisher Scientific), counted using Mallasez counting chamber and seeded into 96-well cell culture plates (Greiner bio-One, Dominique Dutscher, Brumath, France) at approximately 10,000 cells per well. The cells were left to grow for 48–72 h at 37 °C in a 5% CO2 incubator until they reached confluence. Media from wells was then aspirated and cells were treated with 100 µL of culture media containing increasing concentrations of berberine or berberine’s derivatives obtained by serial dilution (from 0 to 50 µM, 1:2 dilution), DMSO (0.5% DMSO final concentration) was used as negative control. After 48 h incubation at 37 °C in a 5% CO2 incubator, cell viability was evaluated using resazurin based in vitro toxicity assay kit (Sigma-Aldrich) following manufacturer’s instructions. Briefly, cell wells were emptied, and cells were treated with 100 µL of resazurin diluted 1:10 in sterile PBS containing calcium and magnesium (PBS^++, pH 7.4). After 4 h incubation at 37 °C, fluorescence intensity (excitation wavelength of 530 nm/emission wavelength of 590 nm) was measured using Synergy Mx microplate reader (Biotek). The fluorescence values were normalized by the controls (DMSO treated cells) and expressed as percent viability. The IC50 values of berberine and berberine’s derivatives on cell viability (i.e., the concentration of derivative causing a reduction of 50% of the cell viability) were calculated using GraphPad® Prism 7 software (San Diego, CA, USA). t-Test and two ways ANOVA analyses were used to address the significant differences between mean values with significance set at p < 0.05.
# [3] = system: Caco2 (human intestinal epithelial cells); experiment: Cytotoxic assay on human cells (resazurin); type: cell-based; conditions: for IC50: Homo sapiens, Caco-2, 48 h, read-out: Inhibitory Concentration 50 (IC50) on cell viability, Caco2
# Experimental: as §1
# [4] = system: HepG2 (human liver cells); experiment: Cytotoxic assay on human cells (resazurin); type: cell-based; conditions: HepG2, 48 h, read-out: Inhibitory Concentration 50 (IC50) on cell viability, HEPG2
# Experimental: as §1
# P. aeruginosa = experiment: MIC, antimicrobial activity assay; type: cell-based, Pseudomonas aeruginosa (ATCC 9027); conditions: Pseudomonas aeruginosa
# M. smegmatis = experiment: microbe, parasite or virus in culture; type: cell-based, Mycobacterium smegmatis (mc2155, ATCC 700084); conditions: Mycolicibacterium smegmatis, 72 h, read-out: Minimal Inhibitory Concentration (MIC) M. smegmatis
# C. albicans = experiment: MIC, antifungal activity assay; type: cell-based, Candida albicans (DSM 10697); conditions: Candida albicans; Table 1 first screening; 35 °C, 24 h; read-out: Minimal Inhibitory Concentration (MIC) C. albicans
# S. aureus = experiment: MIC, antimicrobial activity assay; type: cell-based, Staphylococcus aureus (ATCC 6538P); conditions: Staphylococcus aureus
# E. coli = experiment: MIC, antimicrobial activity assay; type: cell-based, Escherichia coli (ATCC 8739); conditions: Escherichia coli
# B. subtilis = experiment: MIC, antimicrobial activity assay; type: cell-based, Bacillus subtilis (ATCC 6633); conditions: Bacillus subtilis
# A. baumannii = experiment: MIC, antimicrobial activity assay; type: cell-based, Acinetobacter baumannii (CIP 110431); conditions: Acinetobacter baumannii; Table 4, Gram-negative
# C. rodentium = experiment: MIC, antimicrobial activity assay; type: cell-based, Citrobacter rodentium (ATCC 51116); conditions: Citrobacter rodentium; Table 4, Gram-negative
# K. pneumonia = experiment: MIC, antimicrobial activity assay; type: cell-based, Klebsiella pneumoniae (DSMZ 26371); conditions: Klebsiella pneumoniae; Table 4, Gram-negative
# S. pyogenes = experiment: MIC, antimicrobial activity assay; type: cell-based, Streptococcus pyogenes (DSM 20565); conditions: Streptococcus pyogenes; Table 4, Gram-positive; anaerobic
# B. cereus = experiment: MIC, antimicrobial activity assay; type: cell-based; conditions: Bacillus cereus; Table 4, Gram-positive
# A. gandavensis = experiment: MIC, antimicrobial activity assay; type: cell-based, Arthrobacter gandavensis (DSM 2447); conditions: Arthrobacter gandavensis; Table 4, Gram-positive
# [5] = system: E. faecalis (Vancomycin-resistant); experiment: MIC, antimicrobial activity assay; type: cell-based, vancomycin-resistant Enterococcus faecalis (DSMZ 13591); conditions: Enterococcus faecalis, read-out: MIC E. faecalis (Vancomycin-resistant)
# [6] = system: P. aeruginosa (Quinolone-resistant); experiment: MIC, antimicrobial activity assay; type: cell-based; conditions: Pseudomonas aeruginosa, read-out: MIC P. aeruginosa (Quinolone-resistant)
# C. perfringens = experiment: microbe, parasite or virus in culture; type: cell-based, Clostridium perfringens (ATCC 13124); conditions: Clostridium perfringens, read-out: MIC C. perfringens
# S. enterica = experiment: MIC, antimicrobial activity assay; type: cell-based, Salmonella enterica (CIP 80.39); conditions: Salmonella enterica; Table 4, Gram-negative
# L. lactis = experiment: MIC, antimicrobial activity assay; type: cell-based, Lactococcus lactis (DSM 20481); conditions: Lactococcus lactis; Table 4, Gram-positive
# [7] = system: B. subtilis (Nisin-resistant); experiment: MIC, antimicrobial activity assay; type: cell-based, nisin-resistant B. subtilis (DSMZ 347); conditions: Bacillus subtilis, read-out: MIC B. subtilis (Nisin-resistant)
# V. diabolicus = experiment: MIC, antimicrobial activity assay; type: cell-based; conditions: Vibrio diabolicus; Table 4, Gram-negative
# V. alginolyticus = experiment: MIC, antimicrobial activity assay; type: cell-based, Vibrio alginolyticus (DSM 2171); conditions: Vibrio alginolyticus; Table 4, Gram-negative
# C. farmer = experiment: MIC, antimicrobial activity assay; type: cell-based, Citrobacter farmeri (ATCC 51633); conditions: Citrobacter farmeri; Table 4, Gram-negative
# S. flexneri = experiment: MIC, antimicrobial activity assay; type: cell-based, Shigella flexneri (ATCC 12022); conditions: Shigella flexneri; Table 4, Gram-negative
# [8] = system: S.aureus (Methicillin-resistant); experiment: MIC, antimicrobial activity assay; type: cell-based; conditions: Staphylococcus aureus, read-out: MIC S.aureus (Methicillin-resistant)
# H. pylori = experiment: MIC, antimicrobial activity assay; type: cell-based, Helicobacter pylori (ATCC 43504); conditions: Helicobacter pylori; Table 4, Gram-negative; microaerobic
# C. difficile = experiment: MIC, antimicrobial activity assay; type: cell-based, Clostridium difficile (DSM 1296); conditions: Clostridioides difficile; Table 4, Gram-positive; anaerobic
# [9] = Table 1 first screening, read-out: Minimal Inhibitory Concentration (MIC) P. aeruginosa
# [10] = Table 1 first screening, read-out: Minimal Inhibitory Concentration (MIC) S. aureus
# [11] = Table 1 first screening, read-out: Minimal Inhibitory Concentration (MIC) E. coli
# [12] = Table 1 first screening, read-out: Minimal Inhibitory Concentration (MIC) B. subtilis
smiles,measurement,setting,value
COc1ccc2cc3[n+](cc2c1OC)CCc1cc2c(cc1-3)OCO2 [Berberine],antimicrobial activity (active/inactive),[1],low to no antimicrobial activity
same,IC50,[2],40.5 ± 5.4 µM
same,IC50,[3],21.6 ± 2.7 µM
same,IC50,[4],> 50 µM
same,MIC,P. aeruginosa; [9],> 100 µM
same,MIC,M. smegmatis,100 µM
same,MIC,C. albicans,100 µM
same,MIC,S. aureus; [10],> 100 µM
same,MIC,E. coli; [11],> 100 µM
same,MIC,B. subtilis; [12],> 100 µM
"CCOC(=O)Cc1c2[n+](cc3c(OC)c(OC)ccc13)CCc1cc3c(cc1-2)OCO3 [Compound 4, 13-(Acetic Acid Ethylester) Berberine]",MIC,P. aeruginosa; [9],> 100 µM
same,MIC,M. smegmatis,100 µM
same,MIC,C. albicans,> 100 µM
same,MIC,S. aureus; [10],> 100 µM
same,MIC,E. coli; [11],> 100 µM
same,melting point,,216 °C
same,MIC,B. subtilis; [12],> 100 µM
"COc1ccc2c(Cc3ccc(CI)cc3)c3[n+](cc2c1OC)CCc1cc2c(cc1-3)OCO2 [Compound 8, 13-(4-Iodomethylbenzyl)Berberine]",MIC,A. baumannii,> 100 µM
same,MIC,C. rodentium,> 100 µM
same,MIC,K. pneumonia,> 100 µM
same,MIC,S. pyogenes,12.5 µM
same,IC50,[2],23.4 ± 4.5 µM
same,IC50,[3],> 50 µM
same,therapeutic index Caco2,[3]; IC50 on Caco2 divided by MIC on S. aureus,11.18
same,IC50,[4],> 50 µM
same,MIC,B. cereus,12.5 µM
same,MIC,A. gandavensis,3.12 µM
same,MIC,P. aeruginosa; [9],> 100 µM
same,MIC,"P. aeruginosa; Table 4, Gram-negative, read-out: MIC P. aeruginosa",> 100 µM
same,MIC,[5],50 µM
same,MIC,[6],> 100 µM
same,MIC,M. smegmatis,25 µM
same,MIC,C. albicans,50 µM
same,MIC,C. perfringens,100 µM
same,MIC,S. enterica,> 100 µM
same,MIC,L. lactis,3.12 to 6.25 µM
same,MIC,[7],12.5 µM
same,MIC,V. diabolicus,> 100 µM
same,MIC,S. aureus; [10],6.25 µM
same,MIC,"S. aureus; Table 4, Gram-positive, read-out: MIC S. aureus",6.25 µM
same,MIC,V. alginolyticus,6.25 µM
same,MIC,C. farmer,> 100 µM
same,MIC,S. flexneri,50 µM
same,MIC,[8],12.5 µM
same,MIC,E. coli; [11],> 100 µM
same,MIC,"E. coli; Table 4, Gram-negative, read-out: MIC E. coli",> 100 µM
same,MIC,H. pylori,6.25 µM
same,MIC,C. difficile,100 µM
same,MIC,B. subtilis; [12],6.25 µM
same,MIC,"B. subtilis; Table 4, Gram-positive, read-out: MIC B. subtilis",6.25 µM
